According to PMC5760531, “Action Potential Recording and Pro-arrhythmia Risk Analysis in Human Ventricular Trabeculae” (Frontiers in Physiology, 2018):
Where “and” joins values, the source holds several entries; their conditions need not be identical. Equal values may be shown once.

Key:
[1] = human free (unbound) effective therapeutic plasma concentration used to calculate multiples; cited from earlier work
hERG = conditions: ref Rampe et al., 1998; Qu and Vargas, 2015; cited from earlier work
[2] = tested on: human ventricular trabeculae; assay: Action potential recording and pro-arrhythmic score analysis in human ventricular trabeculae (hVT);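 note: sharp microelectrode action potential recordings at 37°C in Tyrode-perfused trabeculae, 4 cumulative concentrations each applied 31 min, values averaged over last 30 APs, vehicle 0.1% DMSO as control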
[3] = 1Hz, 1.5-FOLD free ETPC (0.002µM)
[4] = 1Hz, 15-FOLD free ETPC (0.002µM)
[5] = 1Hz, 150-FOLD free ETPC (0.002µM)
[6] = 1Hz, 1500-FOLD free ETPC (0.002µM)
[7] = 2Hz, 1.5-FOLD free ETPC (0.002µM)
[8] = 2Hz, 15-FOLD free ETPC (0.002µM)
[9] = 2Hz, 150-FOLD free ETPC (0.002µM)
[10] = 2Hz, 1500-FOLD free ETPC (0.002µM)
[11] = average raw data, 1Hz, c2-c5: 1.5-, 15-, 150-, 1500-FOLD free ETPC (0.002µM)

O=C1NCCN1CCN1CCC(c2cn(-c3ccc(F)cc3)c3ccc(Cl)cc23)CC1 [SERTINDOLE, Sertindole]
Free ETPC [1]: 0.002 µM
hERG IC50 (hERG): sub-micromolar
AMAX percentage change compared to vehicle control [2, 3]: 5%
APD30 percentage change compared to vehicle control [2, 3]: 6%
APD50 percentage change compared to vehicle control [2, 3]: 6%
APD90 percentage change compared to vehicle control [2, 3]: 5%
Alternans percentage change compared to vehicle control [2, 3]: 54%
Beat Escape percentage change compared to vehicle control [2, 3]: 0%
EADs percentage change compared to vehicle control [2, 3]: 0%
ERP percentage change compared to vehicle control [2, 3]: 1%
Max Dispersion percentage change compared to vehicle control [2, 3]: -15%
RMP percentage change compared to vehicle control [2, 3]: 1%
Refractoriness Escape percentage change compared to vehicle control [2, 3]: 0%
STV percentage change compared to vehicle control [2, 3]: 31%
Triangulation percentage change compared to vehicle control [2, 3]: 4%
AMAX percentage change compared to vehicle control [2, 4]: 5%
APD30 percentage change compared to vehicle control [2, 4]: -1%
APD50 percentage change compared to vehicle control [2, 4]: 0%
APD90 percentage change compared to vehicle control [2, 4]: 0%
Alternans percentage change compared to vehicle control [2, 4]: -5%
Beat Escape percentage change compared to vehicle control [2, 4]: 0%
EADs percentage change compared to vehicle control [2, 4]: 0%
ERP percentage change compared to vehicle control [2, 4]: 3%
Max Dispersion percentage change compared to vehicle control [2, 4]: -35%
RMP percentage change compared to vehicle control [2, 4]: 3%
Refractoriness Escape percentage change compared to vehicle control [2, 4]: 0%
STV percentage change compared to vehicle control [2, 4]: 0%
Triangulation percentage change compared to vehicle control [2, 4]: 3%
AMAX percentage change compared to vehicle control [2, 5]: 5%
APD30 percentage change compared to vehicle control [2, 5]: 4%
APD50 percentage change compared to vehicle control [2, 5]: 6%
APD90 percentage change compared to vehicle control [2, 5]: 7%
Alternans percentage change compared to vehicle control [2, 5]: 31%
Beat Escape percentage change compared to vehicle control [2, 5]: 0%
EADs percentage change compared to vehicle control [2, 5]: 0%
ERP percentage change compared to vehicle control [2, 5]: 7%
Max Dispersion percentage change compared to vehicle control [2, 5]: -3%
RMP percentage change compared to vehicle control [2, 5]: 2%
Refractoriness Escape percentage change compared to vehicle control [2, 5]: 0%
STV percentage change compared to vehicle control [2, 5]: 23%
Triangulation percentage change compared to vehicle control [2, 5]: 12%
AMAX percentage change compared to vehicle control [2, 6]: 4%
APD30 percentage change compared to vehicle control [2, 6]: 1%
APD50 percentage change compared to vehicle control [2, 6]: 6%
APD90 percentage change compared to vehicle control [2, 6]: 8%
Alternans percentage change compared to vehicle control [2, 6]: -12%
Beat Escape percentage change compared to vehicle control [2, 6]: 0%
EADs percentage change compared to vehicle control [2, 6]: 0%
ERP percentage change compared to vehicle control [2, 6]: 13%
Max Dispersion percentage change compared to vehicle control [2, 6]: -30%
RMP percentage change compared to vehicle control [2, 6]: 3%
Refractoriness Escape percentage change compared to vehicle control [2, 6]: 0%
STV percentage change compared to vehicle control [2, 6]: -24%
Triangulation percentage change compared to vehicle control [2, 6]: 19%
AMAX [2, 7]: 109
AMAX percentage change compared to vehicle control [2, 7]: 3%
APD30 [2, 7]: 104
APD30 percentage change compared to vehicle control [2, 7]: -1%
APD50 [2, 7]: 139
APD50 percentage change compared to vehicle control [2, 7]: 0%
APD90 [2, 7]: 197
APD90 percentage change compared to vehicle control [2, 7]: 0%
Alternans [2, 7]: 1.61
Alternans percentage change compared to vehicle control [2, 7]: 93%
Beat Escape [2, 7]: 0
Beat Escape percentage change compared to vehicle control [2, 7]: 0%
EADs [2, 7]: 0
EADs percentage change compared to vehicle control [2, 7]: 0%
ERP [2, 7]: 0.43
ERP percentage change compared to vehicle control [2, 7]: 2%
Max Dispersion [2, 7]: 4.87
Max Dispersion percentage change compared to vehicle control [2, 7]: 7%
RMP [2, 7]: -85
RMP percentage change compared to vehicle control [2, 7]: 1%
Refractoriness Escape [2, 7]: 0
Refractoriness Escape percentage change compared to vehicle control [2, 7]: 0%
STV [2, 7]: 1.20
Triangulation [2, 7]: 93
Triangulation percentage change compared to vehicle control [2, 7]: 1%
AMAX [2, 8]: 110
AMAX percentage change compared to vehicle control [2, 8]: 4%
APD30 [2, 8]: 104
APD30 percentage change compared to vehicle control [2, 8]: -1%
APD50 [2, 8]: 139
APD50 percentage change compared to vehicle control [2, 8]: 0%
APD90 [2, 8]: 199
APD90 percentage change compared to vehicle control [2, 8]: 1%
Alternans [2, 8]: 0.69
Alternans percentage change compared to vehicle control [2, 8]: -17%
Beat Escape [2, 8]: 0
Beat Escape percentage change compared to vehicle control [2, 8]: 0%
EADs [2, 8]: 0
EADs percentage change compared to vehicle control [2, 8]: 0%
ERP [2, 8]: 0.44
ERP percentage change compared to vehicle control [2, 8]: 4%
Max Dispersion [2, 8]: 3.50
Max Dispersion percentage change compared to vehicle control [2, 8]: -23%
RMP [2, 8]: -87
RMP percentage change compared to vehicle control [2, 8]: 3%
Refractoriness Escape [2, 8]: 0
Refractoriness Escape percentage change compared to vehicle control [2, 8]: 0%
STV [2, 8]: 0.48
Triangulation [2, 8]: 95
Triangulation percentage change compared to vehicle control [2, 8]: 3%
AMAX [2, 9]: 110
AMAX percentage change compared to vehicle control [2, 9]: 5%
APD30 [2, 9]: 112
APD30 percentage change compared to vehicle control [2, 9]: 6%
APD50 [2, 9]: 150
APD50 percentage change compared to vehicle control [2, 9]: 8%
APD90 [2, 9]: 214
APD90 percentage change compared to vehicle control [2, 9]: 9%
Alternans percentage change compared to vehicle control [2, 9]: 30%
Beat Escape [2, 9]: 0
Beat Escape percentage change compared to vehicle control [2, 9]: 0%
EADs [2, 9]: 0
EADs percentage change compared to vehicle control [2, 9]: 0%
ERP [2, 9]: 0.45
ERP percentage change compared to vehicle control [2, 9]: 7%
Max Dispersion [2, 9]: 3.78
Max Dispersion percentage change compared to vehicle control [2, 9]: -17%
RMP [2, 9]: -87
RMP percentage change compared to vehicle control [2, 9]: 3%
Refractoriness Escape [2, 9]: 0
Refractoriness Escape percentage change compared to vehicle control [2, 9]: 0%
STV [2, 9]: 0.78
Triangulation [2, 9]: 103
Triangulation percentage change compared to vehicle control [2, 9]: 12%
AMAX [2, 10]: 110
AMAX percentage change compared to vehicle control [2, 10]: 4%
APD30 [2, 10]: 107
APD30 percentage change compared to vehicle control [2, 10]: 1%
APD50 [2, 10]: 150
APD50 percentage change compared to vehicle control [2, 10]: 8%
APD90 [2, 10]: 221
APD90 percentage change compared to vehicle control [2, 10]: 12%
Alternans [2, 10]: 0.59
Alternans percentage change compared to vehicle control [2, 10]: -29%
Beat Escape [2, 10]: 0
Beat Escape percentage change compared to vehicle control [2, 10]: 0%
EADs [2, 10]: 0
EADs percentage change compared to vehicle control [2, 10]: 0%
ERP [2, 10]: 0.48
ERP percentage change compared to vehicle control [2, 10]: 13%
Max Dispersion [2, 10]: 2.80
Max Dispersion percentage change compared to vehicle control [2, 10]: -39%
RMP [2, 10]: -87
RMP percentage change compared to vehicle control [2, 10]: 3%
Refractoriness Escape [2, 10]: 0
Refractoriness Escape percentage change compared to vehicle control [2, 10]: 0%
STV [2, 10]: 0.42
Triangulation [2, 10]: 114
Triangulation percentage change compared to vehicle control [2, 10]: 23%
TdP identification by pro-arrhythmic score ([2]; at 10-fold human free ETPC, score >10 unsafe, <10 safe): TdP negative
AMAX [2, 11]: 112 mV and 111 mV
APD30 [2, 11]: 159 ms and 150 ms and 158 ms and 153 ms
APD50 [2, 11]: 205 ms and 195 ms and 207 ms and 206 ms
APD90 [2, 11]: 272 ms and 261 ms and 279 ms and 282 ms
Alternans [2, 11]: 0.83 and 0.51 and 0.71 and 0.47
Beat Escape [2, 11]: 0
EADs [2, 11]: 0
ERP [2, 11]: 0.41 and 0.42 and 0.44 and 0.46
Max Dispersion [2, 11]: 3.13 and 2.38 and 3.55 and 2.58
Refractoriness Escape [2, 11]: 0
STV [2, 11]: 0.54 and 0.39 and 0.47 and 0.31
Triangulation [2, 11]: 113 and 111 and 121 and 129
